Reference: ChEMBL document CHEMBL1201862, “PubChem BioAssay data set” (2004)
Active and inactive are the calls of the source.

Columns and labels:
[1] = biological target: T1, Serine/threonine-protein phosphatase (Candida dubliniensis (strain CD36 / CBS 7987 / NCPF 3949 / NRRLY-17841) (Yeast), UniProt B9W6M3); assay: calcineurin pathway inhibitors in yeast reporter, dose response, S. cerevisiae, CDRE-lacZ, luminescence, secondary (AID 2388); type: functional, cell-based;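 note: yeast reporter cells carrying a calcineurin-responsive lacZ construct stimulated with calcium chloride; luminescent beta-galactosidase reporter signal in whole cells rather than isolated phosphatase activity; potency for inhibition where a drop in reporter signal means calcineurin blockade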
T1 sequence (B9W6M3 whole entry): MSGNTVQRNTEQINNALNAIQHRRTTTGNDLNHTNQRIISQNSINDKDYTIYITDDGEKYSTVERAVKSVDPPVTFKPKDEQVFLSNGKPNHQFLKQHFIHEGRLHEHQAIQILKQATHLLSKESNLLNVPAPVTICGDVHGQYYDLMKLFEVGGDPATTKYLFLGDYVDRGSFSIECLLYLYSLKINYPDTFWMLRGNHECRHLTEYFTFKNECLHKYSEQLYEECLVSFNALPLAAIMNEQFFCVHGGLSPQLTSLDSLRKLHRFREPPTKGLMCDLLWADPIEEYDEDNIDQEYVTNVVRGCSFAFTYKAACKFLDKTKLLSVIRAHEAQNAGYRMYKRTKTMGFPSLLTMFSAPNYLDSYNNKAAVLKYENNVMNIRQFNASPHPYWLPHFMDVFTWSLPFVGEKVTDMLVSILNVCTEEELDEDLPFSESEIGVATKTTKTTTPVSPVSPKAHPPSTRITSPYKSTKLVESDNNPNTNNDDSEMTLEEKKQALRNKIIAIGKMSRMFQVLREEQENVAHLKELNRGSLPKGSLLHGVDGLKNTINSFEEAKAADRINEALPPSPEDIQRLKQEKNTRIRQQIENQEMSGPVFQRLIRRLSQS

[2] = insulin promoter down-regulators in MIN6 cells, imaging, high-content screening, mouse beta cells (AID 1628); type: functional
[3] = biological target: ATP-dependent molecular chaperone HSP82 (Candida albicans (strain WO-1) (Yeast), UniProt C4YTQ8); assay: loss of DOC-induced GRE-beta-galactosidase reporter signal, dose response, Hsp90 inhibitor project, S. cerevisiae, luminescence (AID 2400); type: functional, cell-based;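 note: beta-galactosidase luminescence from glucocorticoid response element reporter as proxy for Hsp90 function; inhibitor potency where signal loss means Hsp90 inhibition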
HEK293 = assay: cytotoxicity in HEK293T NF-kB-Luc cells, SAR follow-up, cytotoxicity control for NF-kB activator project, cell-based, resazurin fluorescence (AID 493251); type: functional
Nonstructural protein 1 = Nonstructural protein 1 (Influenza A virus, UniProt Q194T2); type: functional, Influenza A virus (A/California/07/2009(H1N1))
[4] = biological target: UDP-galactopyranose mutase (Mycobacterium tuberculosis, UniProt P9WIQ1); assay: Inhibitors of Mycobacterium tuberculosis UDP-galactopyranose mutase (UGM) enzyme Measured in Biochemical System Using Plate Reader - 2105-02_Inhibitor_Dose_CherryPick_Activity. [Related pubchem assays (depositor defined):AID504439]
[5] = biological target: T2, Sphingosine 1-phosphate receptor 4 (Homo sapiens, UniProt O95977); assay: Fluorescence dose response cell-based high throughput screening assay for antagonists of the Sphingosine 1-Phosphate Receptor 4 (S1P4). [Related pubchem assays: 1524 (Confirmation in triplicates.), 1510 (Primary screen.)]; type: functional
T2 sequence (O95977 whole entry): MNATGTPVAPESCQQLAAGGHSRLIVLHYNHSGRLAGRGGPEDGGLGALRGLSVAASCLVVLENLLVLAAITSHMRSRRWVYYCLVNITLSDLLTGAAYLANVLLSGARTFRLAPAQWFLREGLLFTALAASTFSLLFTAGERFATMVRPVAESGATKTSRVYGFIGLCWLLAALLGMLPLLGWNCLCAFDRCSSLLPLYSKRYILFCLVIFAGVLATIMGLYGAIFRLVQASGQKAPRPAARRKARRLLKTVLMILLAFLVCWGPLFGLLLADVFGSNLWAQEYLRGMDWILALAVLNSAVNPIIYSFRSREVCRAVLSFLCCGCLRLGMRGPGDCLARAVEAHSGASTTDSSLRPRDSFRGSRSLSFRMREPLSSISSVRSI

Beta-galactosidase = Beta-galactosidase (Escherichia coli, UniProt Q8VNN2); assay: beta-galactosidase enzyme inhibitors and activators, dose response, artefact control for CCR6 antagonist project, biochemical, E. coli enzyme, set 3 (AID 504712); type: functional
Caspase-9 = Caspase-9 (Homo sapiens, UniProt P55211); assay: caspase-9 enzyme inhibition, dose response, selectivity assay for caspase-6 inhibitor project, biochemical, fluorescence, plate reader, cherry-picked samples (AID 743293)
[6] = biological target: Peroxisome proliferator-activated receptor gamma/Nuclear receptor coactivator 1 (Homo sapiens, UniProt P37231); assay: (§1) TR-FRET dose response biochemical High Throughput Screening assay for agonists of the steroid receptor coactivator 1 (SRC-1) recruitment by the peroxisome proliferator-activated receptor gamma (PPAR gamma): non-selective agonists. [Related pubchem assays (depositor defined):AID1300, AID1808, AID504735, AID631]; type: protein assay
BJ = assay: cytotoxicity toward Ras-transformed BJeLR fibroblasts, dose response, cell-based, alamar blue fluorescence, cherrypicked samples (AID 2631); type: functional; details: Homo sapiens;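 note: confirmatory dose-response assay in RAS-dependent BJ fibroblasts engineered with TERT, LT and ST, with cytotoxicity read by fluorescence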
[7] = inhibitors of SNCA 5'UTR-driven reporter translation, confirmation, H4 neuroglioma cells, luminescence (AID 1988); type: functional, cell-based
[8] = biological target: Peroxisome proliferator-activated receptor gamma/Nuclear receptor coactivator 3 (Homo sapiens, UniProt P37231); assay: as §1, with “3 (SRC-3)” for “1 (SRC-1)”, “assays: 1301 (Confirmation screen.), 1048 (Primary screen.)]” for “assays (depositor defined):AID1300, AID1808, AID504735, AID631]”; type: functional
[9] = tested on: Streptococcus sp. 'group A'; assay: growth inhibition of control SK(-) GAS strain, dose response, counter-screen for streptokinase expression inhibitor project, luminescence, kanamycin, BacTiterGlo, confirmation (AID 1900); type: functional, organism-based
Fatty acid synthase = Fatty acid synthase (Homo sapiens, UniProt P49327); assay: FAS thioesterase domain inhibitors, dose response, biochemical, endpoint fluorescence intensity, uHTS hits (AID 624327); type: functional;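 note: fluorescence from hydrolysis of an O-methyl fluorescein acyl ester substrate by the enzyme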
ORF 73 = ORF 73 (Human herpesvirus 8, UniProt O40947); assay: inhibitors of C-LANA binding to LBS DNA, dose response, biochemical, fluorescence polarization, cherry-picked samples (AID 504725); parameters: species or system Human gammaherpesvirus 8;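 note: fluorescence polarization of a labeled DNA duplex reporting LANA DNA binding; potency is for inhibitors that block LANA binding to the DNA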
[10] = biological target: Voltage-gated N-type calcium channel alpha-1B subunit/Amyloid beta A4 precursor protein-binding family A member 1 (Homo sapiens, UniProt Q00975+Q02410); type: protein assay
[11] = biological target: T3, Calpain-2 catalytic subunit (Sus scrofa, UniProt P43367); assay: pig calpain II inhibitor potency, dose response, biochemical, fluorogenic peptide substrate (AID 1420); type: functional
T3 sequence (P43367 whole entry): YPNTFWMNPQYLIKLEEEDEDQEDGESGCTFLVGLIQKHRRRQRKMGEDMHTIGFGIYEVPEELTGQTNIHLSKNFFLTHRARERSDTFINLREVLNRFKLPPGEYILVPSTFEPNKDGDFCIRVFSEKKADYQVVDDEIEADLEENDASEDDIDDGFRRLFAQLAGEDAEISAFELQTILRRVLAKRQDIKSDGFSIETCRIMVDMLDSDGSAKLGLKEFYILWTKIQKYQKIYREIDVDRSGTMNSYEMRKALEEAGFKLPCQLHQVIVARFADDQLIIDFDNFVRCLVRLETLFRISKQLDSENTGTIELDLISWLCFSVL

[12] = Fluorescence-based biochemical high throughput screening dose response assay to identify inhibitors of Crimean-Congo Hemorrhagic Fever (CCHF) viral ovarian tumor domain protease (vOTU): Pep-AMC substrate.

Peroxisome proliferator-activated receptor gamma/Nuclear receptor coactivator 1, sequence (P37231 whole entry): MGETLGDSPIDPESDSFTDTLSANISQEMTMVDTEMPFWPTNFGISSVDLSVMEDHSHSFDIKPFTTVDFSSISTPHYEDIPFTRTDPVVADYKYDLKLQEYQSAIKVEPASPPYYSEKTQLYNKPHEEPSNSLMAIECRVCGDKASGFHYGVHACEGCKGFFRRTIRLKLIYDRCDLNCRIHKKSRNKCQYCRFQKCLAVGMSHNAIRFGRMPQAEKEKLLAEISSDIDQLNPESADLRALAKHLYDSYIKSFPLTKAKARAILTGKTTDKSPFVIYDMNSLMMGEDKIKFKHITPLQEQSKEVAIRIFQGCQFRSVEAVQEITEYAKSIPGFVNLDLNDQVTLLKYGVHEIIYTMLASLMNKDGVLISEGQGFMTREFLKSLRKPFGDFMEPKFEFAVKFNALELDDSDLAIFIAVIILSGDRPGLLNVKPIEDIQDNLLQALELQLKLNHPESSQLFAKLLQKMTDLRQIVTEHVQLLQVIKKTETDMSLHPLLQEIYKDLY
Peroxisome proliferator-activated receptor gamma/Nuclear receptor coactivator 1, sequence (Q15788 whole entry, further chain): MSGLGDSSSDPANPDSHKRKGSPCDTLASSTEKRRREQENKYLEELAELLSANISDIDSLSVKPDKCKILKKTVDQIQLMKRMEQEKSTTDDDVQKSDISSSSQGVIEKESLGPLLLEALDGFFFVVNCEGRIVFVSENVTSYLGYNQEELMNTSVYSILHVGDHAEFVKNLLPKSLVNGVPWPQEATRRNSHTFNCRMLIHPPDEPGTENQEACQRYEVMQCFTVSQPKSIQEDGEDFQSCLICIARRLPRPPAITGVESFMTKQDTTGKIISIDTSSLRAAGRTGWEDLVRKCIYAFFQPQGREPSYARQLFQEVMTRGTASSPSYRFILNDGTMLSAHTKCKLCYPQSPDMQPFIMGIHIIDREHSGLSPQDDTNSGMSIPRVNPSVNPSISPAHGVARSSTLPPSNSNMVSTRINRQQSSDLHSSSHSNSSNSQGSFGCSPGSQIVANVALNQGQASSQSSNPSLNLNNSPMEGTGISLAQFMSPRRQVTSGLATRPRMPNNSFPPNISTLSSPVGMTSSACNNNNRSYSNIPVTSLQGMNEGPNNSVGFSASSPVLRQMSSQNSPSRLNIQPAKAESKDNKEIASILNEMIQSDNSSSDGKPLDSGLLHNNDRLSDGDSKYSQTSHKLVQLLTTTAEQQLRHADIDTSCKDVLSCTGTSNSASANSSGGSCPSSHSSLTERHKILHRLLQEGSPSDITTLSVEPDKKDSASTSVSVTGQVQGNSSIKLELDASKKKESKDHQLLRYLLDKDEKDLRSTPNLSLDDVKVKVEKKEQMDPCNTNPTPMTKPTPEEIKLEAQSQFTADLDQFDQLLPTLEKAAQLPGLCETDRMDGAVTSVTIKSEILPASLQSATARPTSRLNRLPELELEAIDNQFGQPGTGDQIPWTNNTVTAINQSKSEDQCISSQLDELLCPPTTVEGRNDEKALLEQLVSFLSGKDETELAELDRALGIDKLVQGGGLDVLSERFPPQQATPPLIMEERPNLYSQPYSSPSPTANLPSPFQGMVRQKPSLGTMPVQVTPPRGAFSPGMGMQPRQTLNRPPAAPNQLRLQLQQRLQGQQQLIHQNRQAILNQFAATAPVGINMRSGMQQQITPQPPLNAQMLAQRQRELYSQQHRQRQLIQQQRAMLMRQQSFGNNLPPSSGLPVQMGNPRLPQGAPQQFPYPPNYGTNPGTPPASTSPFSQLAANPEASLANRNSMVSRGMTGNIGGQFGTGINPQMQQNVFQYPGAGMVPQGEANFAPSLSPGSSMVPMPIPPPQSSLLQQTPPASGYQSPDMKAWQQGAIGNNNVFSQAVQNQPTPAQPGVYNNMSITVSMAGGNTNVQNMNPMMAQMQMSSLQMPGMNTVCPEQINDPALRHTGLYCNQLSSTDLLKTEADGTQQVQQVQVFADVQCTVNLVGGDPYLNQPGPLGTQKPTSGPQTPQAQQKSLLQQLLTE
Peroxisome proliferator-activated receptor gamma/Nuclear receptor coactivator 3, sequence (P37231 whole entry): as the sequence (P37231 whole entry) above
Peroxisome proliferator-activated receptor gamma/Nuclear receptor coactivator 3, sequence (Q9Y6Q9 whole entry, further chain): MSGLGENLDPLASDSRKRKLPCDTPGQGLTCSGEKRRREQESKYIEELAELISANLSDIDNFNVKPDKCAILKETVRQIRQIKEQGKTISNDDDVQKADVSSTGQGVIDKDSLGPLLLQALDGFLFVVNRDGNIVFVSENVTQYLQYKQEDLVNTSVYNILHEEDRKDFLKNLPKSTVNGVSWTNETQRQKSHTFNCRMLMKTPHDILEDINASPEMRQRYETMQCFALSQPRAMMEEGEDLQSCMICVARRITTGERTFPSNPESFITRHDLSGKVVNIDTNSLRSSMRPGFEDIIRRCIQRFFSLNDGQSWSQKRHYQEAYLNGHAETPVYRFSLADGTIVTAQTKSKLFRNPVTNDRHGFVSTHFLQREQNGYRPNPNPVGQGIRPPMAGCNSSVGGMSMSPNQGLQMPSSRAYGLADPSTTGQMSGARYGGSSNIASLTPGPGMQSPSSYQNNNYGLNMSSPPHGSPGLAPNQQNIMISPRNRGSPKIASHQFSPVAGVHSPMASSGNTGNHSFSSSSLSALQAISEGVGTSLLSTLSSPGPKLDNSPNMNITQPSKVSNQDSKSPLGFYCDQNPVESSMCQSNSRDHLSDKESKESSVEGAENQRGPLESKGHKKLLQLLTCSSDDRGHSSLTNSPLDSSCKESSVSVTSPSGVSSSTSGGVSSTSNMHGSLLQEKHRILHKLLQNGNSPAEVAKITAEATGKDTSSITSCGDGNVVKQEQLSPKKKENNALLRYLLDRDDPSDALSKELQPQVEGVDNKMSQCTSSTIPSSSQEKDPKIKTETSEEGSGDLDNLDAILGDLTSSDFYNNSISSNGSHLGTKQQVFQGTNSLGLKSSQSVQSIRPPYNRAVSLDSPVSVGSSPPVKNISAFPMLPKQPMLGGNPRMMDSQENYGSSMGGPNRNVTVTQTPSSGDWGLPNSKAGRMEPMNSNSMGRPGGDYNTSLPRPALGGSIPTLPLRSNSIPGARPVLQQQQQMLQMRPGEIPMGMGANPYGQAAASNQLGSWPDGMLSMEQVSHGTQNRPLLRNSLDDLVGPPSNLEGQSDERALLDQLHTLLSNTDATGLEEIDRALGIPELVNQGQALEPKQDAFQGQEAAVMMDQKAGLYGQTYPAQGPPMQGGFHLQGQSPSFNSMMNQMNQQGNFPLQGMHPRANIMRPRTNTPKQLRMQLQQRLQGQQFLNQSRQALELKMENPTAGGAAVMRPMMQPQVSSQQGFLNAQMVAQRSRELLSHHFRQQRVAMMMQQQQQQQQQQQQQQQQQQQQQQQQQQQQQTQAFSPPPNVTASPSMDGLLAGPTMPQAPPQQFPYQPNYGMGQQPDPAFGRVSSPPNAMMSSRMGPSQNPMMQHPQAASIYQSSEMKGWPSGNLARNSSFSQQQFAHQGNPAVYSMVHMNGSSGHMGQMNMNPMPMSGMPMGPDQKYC
Beta-galactosidase, sequence (Q8VNN2 whole entry): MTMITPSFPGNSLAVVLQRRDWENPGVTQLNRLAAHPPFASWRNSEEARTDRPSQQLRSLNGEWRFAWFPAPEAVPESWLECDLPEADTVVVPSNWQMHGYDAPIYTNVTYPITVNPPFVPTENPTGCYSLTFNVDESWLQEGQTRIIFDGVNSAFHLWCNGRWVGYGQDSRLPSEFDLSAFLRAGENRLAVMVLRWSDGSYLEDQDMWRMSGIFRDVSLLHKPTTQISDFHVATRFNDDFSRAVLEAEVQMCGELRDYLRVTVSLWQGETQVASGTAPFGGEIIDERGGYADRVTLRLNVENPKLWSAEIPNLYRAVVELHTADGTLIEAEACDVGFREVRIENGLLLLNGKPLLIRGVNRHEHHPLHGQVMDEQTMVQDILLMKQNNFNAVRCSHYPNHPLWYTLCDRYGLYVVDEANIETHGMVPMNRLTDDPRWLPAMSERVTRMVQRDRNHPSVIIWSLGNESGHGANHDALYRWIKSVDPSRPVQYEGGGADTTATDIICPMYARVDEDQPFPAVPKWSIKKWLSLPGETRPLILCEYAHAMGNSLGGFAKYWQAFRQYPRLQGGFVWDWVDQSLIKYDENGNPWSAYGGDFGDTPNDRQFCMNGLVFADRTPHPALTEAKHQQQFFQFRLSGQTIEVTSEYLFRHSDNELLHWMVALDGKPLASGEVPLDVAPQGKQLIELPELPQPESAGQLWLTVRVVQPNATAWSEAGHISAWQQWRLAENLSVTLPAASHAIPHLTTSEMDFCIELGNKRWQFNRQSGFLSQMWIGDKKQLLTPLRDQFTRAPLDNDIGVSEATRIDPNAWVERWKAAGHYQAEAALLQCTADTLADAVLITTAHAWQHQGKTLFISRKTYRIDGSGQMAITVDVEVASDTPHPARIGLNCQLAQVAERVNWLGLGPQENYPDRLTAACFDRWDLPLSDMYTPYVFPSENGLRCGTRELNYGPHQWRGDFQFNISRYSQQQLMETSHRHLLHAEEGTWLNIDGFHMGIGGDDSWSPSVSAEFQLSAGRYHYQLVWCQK

## CCCC(=O)NC(c1ccccc1OC)c1ccc2cccnc2c1O (stereo not given)
[1]
  EC50: > 180 µM (inactive)
[2]
  IC50: 1.71 µM (active)
[3]
  EC50: 25.9 µM (active)
HEK293; Homo sapiens, HEK293
  IC50: 29.6 µM (inactive)
HEK293; hek293
  IC50: 41.2 µM (inactive)

## COC(CNC(=O)c1ccc2c3c(onc13)-c1ccccc1C2=O)OC
Nonstructural protein 1
  IC50: 82.4 µM (active)
[4]
  AC50: 2.79 µM (active)
[5]
  IC50: 1.63 µM (active)
Beta-galactosidase
  IC50: > 66.6 µM (inactive)

## COc1ccc(OC)c(Nc2cc3ccccc3c(O)n2)c1
Caspase-9
  AC50: 10.1 µM (active)

## Nc1ccc2c(c1)C(=O)C(=O)c1ccccc1-2
[6]
  EC50: 12.3 µM (inactive)
BJ
  EC50: 2.8 µM (active)
[7]
  EC50: > 120 µM (not active)
[8]
  EC50: > 79.4 µM (not active)
[9]
  EC50: 0.46 µM (active)

## COc1cc(-c2ccc(Nc3ccccc3C(=O)O)c(OC)c2)ccc1Nc1ccccc1C(=O)O
Fatty acid synthase
  IC50: 7.61 µM (active)
ORF 73
  AC50: 78.9 µM (active)
[10]
  IC50: 30 µM (active)
[11]
  IC50: 2.87 µM (not active)

## O=C(O)c1ccc(NC2=C/C(=N/S(=O)(=O)c3ccccc3)c3ccccc3C2=O)cc1
[12]
  IC50: > 0.157 µM (active)
